Experiments:
[1] = rat; cited from earlier work
[2] = test system: HSV-1; assay: Quantitative autoradiography of ^14 C-FMAU uptake in HSV-1-infected rats (focal encephalitis); conditions: for ^14 C Radioactivity Concentration: ± SD
Description: (§1) These initial studies reflect observations on ten rats receiving ^14 C-FMAU. Seven of these were infected, and three uninfected control rats were subjected to a cortical freeze lesion (13) to test the effects of necrosis and breakdown of the blood-brain barrier on drug distribution.

[3] = rat, in vivo
Description: as §1

[4] = Arterial plasma ^14 C activity by liquid scintillation counting; conditions: representative infected rat
[5] = test system: HSV; conditions: NIAID Collaborative Study; cited from earlier work

Cc1cn([C@@H]2O[C@H](CO)[C@@H](O)[C@@H]2F)c(=O)[nH]c1=O [FMAU]
metabolic alteration [1]: only a minor fraction undergoes metabolic alteration

Cc1cn([C@@H]2O[C@H](CO)[C@@H](O)[C@@H]2F)[14c](=O)[nH]c1=O [^14 C-FMAU]
isotope uptake within infected brain regions ([2]; 24 hours after isotope injection): similarly enhanced within infected brain regions
activity in lateral walls of the lateral ventricles ([2]; 24 hours, apparently uninfected ependymal lining): higher activity was noted
^14 C Radioactivity Concentration ([2]; Brain (C): Background, left cortex, viral antigen -, 6 hours): 104.35 ± 4.88 nCi/gm
^14 C Radioactivity Concentration ([2]; Brain (C): Left ventricular choroid plexus, viral antigen -, 6 hours): 188.59 ± 9.18 nCi/gm
^14 C Radioactivity Concentration ([2]; Brain (C): Optic chiasm, right, viral antigen +, 6 hours): 325.12 ± 16.46 nCi/gm
^14 C Radioactivity Concentration ([2]; Brain (D): Background, left cortex, viral antigen -, 6 hours): 95.29 ± 4.32 nCi/gm
^14 C Radioactivity Concentration ([2]; Brain (D): Left hypothalamus, viral antigen +, 6 hours): 1170.91 ± 66.90 nCi/gm
^14 C Radioactivity Concentration ([2]; Brain (D): Left optic tract, viral antigen +, 6 hours): 1105.89 ± 77.34 nCi/gm
^14 C Radioactivity Concentration ([2]; Brain (D): Right hypothalamus, viral antigen +, 6 hours): 1138.10 ± 99.57 nCi/gm
^14 C Radioactivity Concentration ([2]; Brain (E): Background, left cortex, viral antigen -, 6 hours): 96.78 ± 4.66 nCi/gm
^14 C Radioactivity Concentration ([2]; Brain (E): Background, right central thalamus, viral antigen -, 6 hours): 67.47 ± 3.90 nCi/gm
^14 C Radioactivity Concentration ([2]; Brain (E): Left dorsomedial thalamus, viral antigen +, 6 hours): 1183.53 ± 163.31 nCi/gm
^14 C Radioactivity Concentration ([2]; Brain (E): Left lateral thalamus, viral antigen +, 6 hours): 198.21 ± 21.00 nCi/gm
^14 C Radioactivity Concentration ([2]; Brain (F): Background, left cortex, viral antigen -, 6 hours): 106.57 ± 5.53 nCi/gm
^14 C Radioactivity Concentration ([2]; Brain (F): Central midbrain, viral antigen +, 6 hours): 468.81 ± 23.96 nCi/gm
^14 C Radioactivity Concentration ([2]; Brain (G): Background, central brainstem, viral antigen -, 6 hours): 110.97 ± 9.98 nCi/gm
^14 C Radioactivity Concentration ([2]; Brain (G): Background, left cortex, viral antigen -, 6 hours): 83.08 ± 7.70 nCi/gm
^14 C Radioactivity Concentration ([2]; Brain (G): Pineal gland, viral antigen +, 6 hours): 1509.18 ± 97.65 nCi/gm
^14 C Radioactivity Concentration ([2]; Eye (B): Retina, inferior, viral antigen +, 6 hours): 1528.07 ± 140.36 nCi/gm
^14 C Radioactivity Concentration ([2]; Eye (B): Retina, posterior, viral antigen +, 6 hours): 2447.81 ± 172.66 nCi/gm
^14 C Radioactivity Concentration ([2]; Liver, viral antigen staining -, 6 hours after ^14 C-FMAU (5 mg/kg i.v.)): 188.25 ± 13.19 nCi/gm
^14 C activity within infected regions vs background ([2]; each HSV-1-infected rat): exceeded background within infected regions and correlating closely with viral antigen staining in each case
selectivity of uptake by infected brain cells ([2]; radiolabeled FMAU, HSV-1 infection): selectively taken up by infected brain cells
background distribution of ^14 C activity ([2]; uninfected brain regions, 6 hours): quite uniform, with only minor variations among uninfected brain regions
isotope uptake in or surrounding the area of necrosis [3]: no increase in isotope uptake was detected
plasma ^14 C-FMAU concentration time course ([4]; 5 mg/kg i.v., to 6 hours): fell rapidly over the first 30 mins and more slowly thereafter
plasma ^14 C-FMAU concentration at the time of sacrifice ([4]; 6 hours after 5 mg/kg i.v.): approximately 185 nCi/gm

Nc1ncnc2c1ncn2[C@@H]1O[C@H](CO)[C@@H](O)[C@@H]1O [ara-A]
therapeutic effect in HSV encephalitis [5]: less than optimal
